Test: Antagonist activity at CCR2 in human THP1 cells assessed as inhibition of MCP1-induced chemotaxis after 3 hrs

Row | Compound | IC50 [nM]
1 | O=C(CNC(=O)c1cccc(C(F)(F)F)c1)NC1CN([C@H]2CC[C@@H](c3ccc4c(c3)OCO4)CC2)C1 | 15
2 | O=C(CNC(=O)c1cccc(C(F)(F)F)c1)NC1CN([C@H]2CC[C@H](c3ccncc3O)CC2)C1 | 57
3 | N[C@]1(c2ccccc2)CC[C@H](N2CC(NC(=O)CNC(=O)c3cccc(C(F)(F)F)c3)C2)CC1 | 160
4 | COc1ccc([C@]2(O)CC[C@@H](N3CC(NC(=O)CNC(=O)c4cccc(C(F)(F)F)c4)C3)CC2)cc1 | 67
5 | COc1cnccc1[C@H]1CC[C@H](N2CC(NC(=O)CNC(=O)c3cccc(C(F)(F)F)c3)C2)CC1 | 28
6 | O=C(CNC(=O)c1cccc(C(F)(F)F)c1)NC1CN([C@H]2CC[C@H](c3cccnc3)CC2)C1 | 52
7 | O=C(CNC(=O)c1cccc(C(F)(F)F)c1)NC1CN([C@H]2CC[C@H](c3ccc(C(=O)O)cc3)CC2)C1 | 1300
8 | COc1ccc([C@H]2CC[C@H](N3CC(NC(=O)CNC(=O)c4cccc(C(F)(F)F)c4)C3)CC2)cc1 | 25
9 | O=C(CNC(=O)c1cccc(C(F)(F)F)c1)NC1CN([C@H]2CC[C@H](c3ccc(N4CCCC4)cc3)CC2)C1 | 240
10 | O=C(CNC(=O)c1cccc(C(F)(F)F)c1)NC1CN([C@H]2CC[C@H](c3ccc4nc[nH]c4c3)CC2)C1 | 21
11 | O=C(CNC(=O)c1cccc(C(F)(F)F)c1)NC1CN([C@H]2CC[C@](O)(c3ccc4c(c3)OCO4)CC2)C1 | 27
12 | COc1ccc([C@H]2CC[C@H](N3CC(NC(=O)CNC(=O)c4cccc(C(F)(F)F)c4)C3)CC2)cn1 | 11
13 | O=C(CNC(=O)c1cccc(C(F)(F)F)c1)NC1CN([C@H]2CC[C@](O)(c3ccc4c(c3)OCC4)CC2)C1 | 52
14 | O=C(CNC(=O)c1cccc(C(F)(F)F)c1)NC1CN([C@H]2CC[C@H](c3ccc(O)cn3)CC2)C1 | 14
15 | O=C(CNC(=O)c1cccc(C(F)(F)F)c1)NC1CN([C@H]2CC[C@H](c3ccc(O)cc3)CC2)C1 | 42
16 | COc1cc([C@H]2CC[C@H](N3CC(NC(=O)CNC(=O)c4cccc(C(F)(F)F)c4)C3)CC2)ccn1 | 170

From BindingDB's records for doi:10.1016/j.bmcl.2011.06.080 (Johnson & Johnson Pharmaceutical Research and Development, 2011)
